Reference: patent publication US11084795B2, “CFTR regulators and methods of use thereof” (The Regents of the University of California, priority 2015, dated 2021)
Where two headings read alike, the source gives them in different places. Where a SMILES comes first, the peptide text is derived from it. Bridges are numbered along the chain shown (N, C = ends).

Key:
[1] = tested on: CFTR at the ocular surface; assay: Ocular surface potential difference (PD) in living mice; format: in vivo, mouse; settings: wild-type mice, 1-10 μM
Experimental: Open-circuit transepithelial PD were measured continuously in anesthetized mice in response to serial perfusions of different solutions over the ocular surface, as described (21). Mice were anesthetized with Avertin (2,2,2-tribromoethanol, 125 mg/kg intraperitoneal, Sigma-Aldrich, St. Louis, Mo., USA), and core temperature was maintained at 37° C. using a heating pad. Eyes were oriented with the cornea and conjunctiva facing upward and exposed by retracting the eyelid with cross-action forceps. Solutions were isosmolar (320±10 mOsM; compositions provided in ref. 21) and contained 10μ[…] indomethacin to prevent CFTR activation by prostaglandins. The ocular surface was perfused at 6 mL/min through plastic tubing using a multireservoir gravity pinch-valve system (ALA Scientific, Westbury, N.Y., USA) and variable-flow peristaltic pump (medium flow model; Fisher Scientific, Fair Lawn, N.J., USA). A probe catheter was fixed 1 mm above the cornea using a micropositioner and a suction cannula was positioned 3 mm from the orbit. The measuring electrode was in contact to the perfusion catheter and connected to a high-impedance voltmeter (IsoMilivolt Meter; WPI). The reference electrode was grounded via a winged 21-gauge needle filled with isosmolar saline, and inserted subcutaneously in the abdomen. Measuring and reference electrodes consisted of Ag/AgCl with 3 M KCl agar bridges.
An open-circuit potential difference (PD) method developed in our lab was used to evaluate compound activity at the ocular surface in vivo, as depicted in FIG. 3A (21). Cl^− channel function was quantified by measuring PD during continuous perfusion of the ocular surface with a series of solutions that imposed a transepithelial Cl^− gradient and contained various channel agonists and/or inhibitors. The ocular surface was first perfused with isosmolar saline to record the baseline PD. Amiloride was then added to the perfusate, followed by exchange to a low Cl^− solution in which Cl^− with an impermeant anion, gluconate. These maneuvers allow for direct visualization of CFTR activation in response to addition of candidate CFTR activators.
Ocular surface potential difference measurements. Open-circuit transepithelial PD were measured continuously in anesthetized mice in response to serial perfusions of different solutions over the ocular surface, as described (21). Mice were anesthetized with Avertin (2,2,2-tribromoethanol, 125 mg/kg intraperitoneal, Sigma-Aldrich, St. Louis, Mo., USA), and core temperature was maintained at 37° C. using a heating pad. Eyes were oriented with the cornea and conjunctiva facing upward and exposed by retracting the eyelid with cross-action forceps. […]

tear fluid secretion = format: in vivo, mouse
human wildtype CFTR [2] = target: T1, human wildtype CFTR (Homo sapiens, UniProt P13569); assay: Short-circuit current (Isc) in FRT cells expressing human wild-type CFTR
loperamide-treated mice = assay: Loperamide-induced mouse model of constipation
[3] = tested on: chronic constipation / IBS-C patients; settings: linaclotide: chronic constipation; lubiprostone: IBS-C; cited from earlier work
human wildtype CFTR [4] = target: T1, human wildtype CFTR; assay: Fluorescence plate reader assay of iodide influx in FRT cells co-expressing CFTR and YFP halide sensor
[5] = wild-type mice, B074 100 μM, J027 and K089 50 μM, VX-770 10 μM, cholera toxin 0.1 μg/mL, forskolin 20 μM, IBMX 250 μM

T1 sequence (P13569 whole entry): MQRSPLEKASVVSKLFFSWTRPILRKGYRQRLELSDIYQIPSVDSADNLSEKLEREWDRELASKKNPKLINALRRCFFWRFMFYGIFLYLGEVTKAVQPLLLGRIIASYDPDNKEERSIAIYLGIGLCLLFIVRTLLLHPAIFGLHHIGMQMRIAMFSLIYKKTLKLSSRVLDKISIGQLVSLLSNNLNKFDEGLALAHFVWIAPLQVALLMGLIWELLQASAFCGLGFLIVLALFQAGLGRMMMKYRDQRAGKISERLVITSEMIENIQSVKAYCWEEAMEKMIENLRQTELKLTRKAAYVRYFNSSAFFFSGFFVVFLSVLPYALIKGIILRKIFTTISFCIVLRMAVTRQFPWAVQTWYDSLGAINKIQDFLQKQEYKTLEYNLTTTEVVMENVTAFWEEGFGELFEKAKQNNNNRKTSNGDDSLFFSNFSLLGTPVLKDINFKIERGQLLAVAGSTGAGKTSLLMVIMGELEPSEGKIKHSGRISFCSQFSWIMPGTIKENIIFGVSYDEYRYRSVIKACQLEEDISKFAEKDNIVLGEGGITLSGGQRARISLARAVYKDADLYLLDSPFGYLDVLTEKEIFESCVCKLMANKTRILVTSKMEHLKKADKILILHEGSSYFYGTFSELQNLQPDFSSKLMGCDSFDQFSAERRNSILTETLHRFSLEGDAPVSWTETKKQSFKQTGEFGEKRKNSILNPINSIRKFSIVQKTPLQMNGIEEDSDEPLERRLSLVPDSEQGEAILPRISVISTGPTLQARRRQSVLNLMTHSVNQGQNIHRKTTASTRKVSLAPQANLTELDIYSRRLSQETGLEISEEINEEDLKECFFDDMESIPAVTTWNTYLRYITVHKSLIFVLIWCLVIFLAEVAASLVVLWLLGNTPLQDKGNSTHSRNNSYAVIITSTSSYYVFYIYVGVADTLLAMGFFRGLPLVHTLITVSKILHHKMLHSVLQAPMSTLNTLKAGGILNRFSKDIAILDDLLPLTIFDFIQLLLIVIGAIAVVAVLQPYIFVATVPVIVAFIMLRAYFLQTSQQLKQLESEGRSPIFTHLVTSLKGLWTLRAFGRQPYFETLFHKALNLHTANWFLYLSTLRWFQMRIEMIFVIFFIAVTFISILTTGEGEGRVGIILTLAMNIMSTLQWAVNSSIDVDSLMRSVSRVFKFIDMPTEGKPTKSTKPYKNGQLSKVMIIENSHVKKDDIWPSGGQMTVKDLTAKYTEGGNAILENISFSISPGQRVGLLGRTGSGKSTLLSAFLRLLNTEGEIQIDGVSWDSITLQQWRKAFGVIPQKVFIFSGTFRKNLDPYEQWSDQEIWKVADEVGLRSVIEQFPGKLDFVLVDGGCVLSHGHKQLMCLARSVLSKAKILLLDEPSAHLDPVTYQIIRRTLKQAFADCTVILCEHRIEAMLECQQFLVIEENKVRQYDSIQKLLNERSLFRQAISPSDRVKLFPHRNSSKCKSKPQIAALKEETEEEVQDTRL

For `CC(C)(C)c1cc(C(C)(C)C)c(NC(=O)c2c[nH]c3ccccc3c2=O)cc1O` [VX-770, reference compound], which “change in ocular surface PD” value [1] is on record?
The value was “minimal changes in ocular surface PD”.

And the “tear fluid secretion after single topical dose” value (“tear fluid secretion” for short) (tear fluid secretion; [5])?
Its value is “little tear secretion”.

What about the “activity against wild-type CFTR” value (human wildtype CFTR [2]) of the same molecule?
The value was “relatively weak activity”.

And the “maximal CFTR activation” value (human wildtype CFTR [2]; wild-type CFTR)?
Its value is 15%.

For `Cn1c(=O)c(-c2cc([N+](=O)[O-])ccc2N)nc2ccccc21` [inactive chemical analog of CFTRact-J027, reference compound], which “efficacy on stool parameters of inactive analog” value (loperamide-treated mice; loperamide-treated wildtype mice) is on record?
The value was “nor was an inactive chemical analog of CFTRact-J027 effective in wildtype mice”.

What does the source list for `C[C@@H]1NC(=O)[C@@H]2CCCN2C(=O)[C@H](CC(N)=O)NC(=O)[C@@H]2CSSC[C@H](N)C(=O)N[C@H]3CSSC[C@H](NC1=O)C(=O)N[C@@H]([C@@H](C)O)C(=O)NCC(=O)N[C@H](C(=O)N[C@@H](Cc1ccc(O)cc1)C(=O)O)CSSC[C@H](NC(=O)[C@H](Cc1ccc(O)cc1)NC(=O)[C@H](CCC(=O)O)NC3=O)C(=O)N2` [linaclotide, reference compound] (H-CCEYCCNPACTGCY-OH; disulfide 1-6, 2-10, 5-13)?
stool output normalization as % of the maximal CFTRact-J027 response (loperamide-treated mice; oral 0.5 mg/kg, loperamide-treated mice): 35%; patients in whom the drug was effective [3]: ~20%

For `CCCCC(F)(F)[C@@]1(O)CC[C@H]2[C@@H](CC(=O)[C@@H]2CCCCCCC(=O)O)O1` [lubiprostone], which “patients in whom the drug was effective” value [3] is on record?
The value was roughly 13%.

With `Nc1ccc([N+](=O)[O-])cc1-c1nc2cc(Cl)ccc2n(Cc2ccccc2)c1=O` [CFTRact-J135, 3-(2-Amino-5-nitrophenyl)-1-benzyl-6-chloroquinoxalin-2(1H)-one] as the molecule, how does the EC50 (human wildtype CFTR [4]) read?
Its EC50 is 0.11 µM.

And the EC50 (human wildtype CFTR [2]; EC50 for CFTR activation, FRT cells, wild-type CFTR, short-circuit current)?
The EC50 was roughly 0.3 µM.

What about the “extent of CFTR activation (Isc)” value (human wildtype CFTR [2]; forskolin produced little or no further increase in current) of the same molecule?
The value was “fully activated CFTR”.

With `CC(C)Cn1c(=O)n(C)c(=O)c2[nH]cnc21` [IBMX, 3-isobutyl-1-methylxanthine, reference compound] as the molecule, how does the “tear fluid secretion” value (tear fluid secretion; [5]) read?
Its value is “substantially increased basal tear secretion at 30 min, but these effects were transient and undetectable after 2 hours”.

Which “CFTR activity of commercial analogs relative to CFTRact-J027” value (human wildtype CFTR [4]) does the source give for `CC(=O)Nc1ccccc1-c1nc2ccccc2n(Cc2ccccc2)c1=O` [CFTRact-J057] here?
The value was “greatly reduced activity”.

What about the EC50 (human wildtype CFTR [4]) of the same molecule?
Its EC50 is roughly 15 µM.

For `CCCn1c(=O)c(-c2cccc([N+](=O)[O-])c2)nc2ccccc21` [Compound 3d, 1-Propyl-3-(3-nitrophenyl)quinoxalin-2(1H)-one], which EC50 (human wildtype CFTR [4]; read-out: EC50, variation in the N1-substituent, plate reader assay) is on record?
The EC50 was 0.177 µM.

With `Nc1cccc(Br)c1-c1nc2ccccc2n(Cc2ccccc2)c1=O` [CFTRact-J142, 3-(2-Amino-6-bromophenyl)-1-benzylquinoxalin-2(1H)-one] as the molecule, how does the EC50 (human wildtype CFTR [4]) read?
Its EC50 is 1.5 µM.

With `Cn1c(=O)c(-c2cccc([N+](=O)[O-])c2)nc2ccccc21` [Compound 3b, 1-Methyl-3-(3-nitrophenyl)quinoxalin-2(1H)-one] as the molecule, how does the EC50 (human wildtype CFTR [4]) read?
The EC50 was greater than 10 µM.

For `Cc1ccc2c(c1)nc(-c1cc(F)ccc1N)c(=O)n2Cc1ccccc1` [CFTRact-J140, 3-(2-Amino-5-fluorophenyl)-1-benzyl-6-methylquinoxalin-2(1H)-one], which EC50 (human wildtype CFTR [4]) is on record?
Its EC50 is 0.7 µM.

For `O=c1[nH]c2ccccc2nc1-c1cccc([N+](=O)[O-])c1` [Compound 3a, 3-(3-Nitrophenyl)quinoxalin-2(1H)-one], which EC50 (human wildtype CFTR [4]) is on record?
The EC50 was greater than 10 µM.

Which “EC50, variation in the quinoxalinone core” value (human wildtype CFTR [4]; plate reader assay) does the source give for `O=c1c(-c2cccc([N+](=O)[O-])c2)nc2ccc(Br)cc2n1Cc1ccccc1` [Compound 2e, 1-Benzyl-7-bromo-3-(3-nitrophenyl)quinoxalin-2(1H)-one] here?
The value was “EC50 = Inactive”.

Which EC50 (human wildtype CFTR [4]) does the source give for `Nc1ccc([N+](=O)[O-])cc1-c1nc2cc(Br)ccc2n(Cc2ccccc2)c1=O` [CFTRact-J136, 3-(2-Amino-5-nitrophenyl)-1-benzyl-6-bromoquinoxalin-2(1H)-one] here?
Its EC50 is 0.26 µM.

Which EC50 (human wildtype CFTR [4]) does the source give for `Nc1ccc(F)cc1-c1nc2ccccc2n(Cc2ccccc2)c1=O` [CFTRact-J133, 3-(2-Amino-5-fluorophenyl)-1-benzylquinoxalin-2(1H)-one] here?
The EC50 was 0.79 µM.

With `O=c1c(-c2cccc([N+](=O)[O-])c2)nc2cc(Cl)c(Cl)cc2n1Cc1ccccc1` [Compound 2d, 1-Benzyl-6,7-dichloro-3-(3-nitrophenyl)quinoxalin-2(1H)-one] as the molecule, how does the EC50 (human wildtype CFTR [4]) read?
The EC50 was greater than 10 µM.

For cholera toxin [reference compound], which “tear fluid secretion” value (tear fluid secretion; mouse, in vivo) is on record?
Its value is “substantially increased basal tear secretion at 30 min, but these effects were transient and undetectable after 2 hours”.

Which EC50 (human wildtype CFTR [4]) does the source give for `Nc1ccc([N+](=O)[O-])cc1-c1nc2ccccc2n(Cc2ccc(Br)cc2)c1=O` [CFTRact-J102, 3-(2-Amino-5-nitrophenyl)-1-(4-bromobenzyl)quinoxalin-2(1H)-one] here?
The EC50 was greater than 25 µM.

For `O=c1c(-c2cccc([N+](=O)[O-])c2)nc2cc(Br)ccc2n1Cc1ccccc1` [Compound 2f, 1-Benzyl-6-bromo-3-(3-nitrophenyl)quinoxalin-2(1H)-one], which EC50 (human wildtype CFTR [4]; read-out: EC50, variation in the quinoxalinone core, plate reader assay) is on record?
Its EC50 is 0.063 µM.

For `O=c1c(-c2ccc(F)c([N+](=O)[O-])c2)nc2ccccc2n1Cc1ccccc1` [Compound 1i, 1-Benzyl-3-(4-fluoro-3-nitrophenyl)quinoxalin-2(1H)-one], which EC50 (human wildtype CFTR [4]; read-out: EC50, variation in the 3-aryl ring, plate reader assay) is on record?
The EC50 was 0.69 µM.

Which EC50 (human wildtype CFTR [4]) does the source give for `CC(=O)Nc1ccccc1-c1nc2ccccc2n(CCc2ccccc2)c1=O` [CFTRact-J061] here?
The EC50 was roughly 20 µM.

For `Nc1ccc([N+](=O)[O-])cc1-c1nc2ccccc2n(Cc2cccc(Br)c2)c1=O` [CFTRact-J103, 3-(2-Amino-5-nitrophenyl)-1-(3-bromobenzyl)quinoxalin-2(1H)-one], which EC50 (human wildtype CFTR [4]) is on record?
The EC50 was 1.2 µM.
